# Data: patent publication US9771563B2, “Chemical approaches for generation of induced pluripotent stem cells” (The Scripps Research Institute, priority 2008, dated 2017)
# Key:
# [1] = tested on: mES R1 cells; experiment: Proliferation assay; format: cell-based, mouse; details: 2 μM BayK, 1 μM BIX; 15, 24, 48 hours; vs DMSO
# Procedure: mES R1 cells were plated onto gelatin-coated 6-well plates at a density of 2×10^5 cells/well in complete mES cell media. Upon cell attachment, app. 12 hours, the cells were treated either with DMSO, 1 μM BIX, 2 μM BayK, and a combination of both, in triplicate. At 15, 24 and 48 hours, the cells were detached using trypsin, and counted using a hemocytometer. Trypan blue (Sigma-Aldrich, St. Louis, Mo.) was used for dead cell exclusion.
# [2] = tested on: primary OG2 neural progenitor cells; experiment: iPS cell induction from neural progenitor cells after retroviral transduction; format: cell-based, mouse
# Procedure: The reporter neural progenitor cells were generated using a well established protocol by differentiating the Oct4-GiP mESCs grown in monolayer on gelatin in a chemically defined medium/CDM condition in the absence of serum and other growth factors/cytokines at low cell density for eight days, followed by neurophere formation and subsequent serial passaging in single cells in neural cell expansion media supplemented with 10 ng/ml of bFGF and EGF in monolayer for over six passages/24 days. The resulting neural progenitor cells were homogenous by cell morphology and neural marker expression, and were confirmed to be GFP negative and puromycin sensitive. Such neural progenitor cells plated in monolayer in conventional mESC growth media were transduced with combinations of four, three, or two of the four factors, followed by treating the transduced cells with individual small molecules from a small known drug collection in a typical 6-well format. The compound treatment and culture were continued for additional ten days before puromycin was added. The number of green and puro-resistant colonies was counted at day 14. In comparison to the only four-gene transduced neural cells as the positive control, compound conditions that generated more green colonies than the corresponding gene-only conditions were picked as primary hits. To further confirm these primary hit conditions, we chose to use a late passage of mouse CNS neural progenitor cells (Do, J. T. et al., Stem Cells 25, 1013-1020 (2007)) that were derived from fetal brain of OG2^+/−/ROSA26^+/− transgenic mice (which contain an Oct4-GFP reporter) and expanded in monolayer under the same neural CDM condition as the above with 10 ng/ml of bFGF and EGF. Such cells truly from a non-pluripotent tissue would be devoid of concerns of any contaminating ES cell in the above screening system, which is highly unlikely with all appropriate controls. Similar culture conditions and reprogramming assays were performed using the OG2 neural progenitor cells except that puromycin was not used and green colonies were picked out and characterized by staining of Nanog, SSEA1 and ALP.
# mESC-derived or primary OG2 mouse neural progenitor cells were plated into Matrigel (1:50, BD Biosciences) coated 6-well plates at 3.5×10^4 cells/well in the neural progenitor cell expansion media. After one day these cells were transduced with retrovirus for overnight, and the medium was changed into the mESC growth media [DMEM, 5% FBS, 10% KSR, 1× non-essential amino acids (Gibco), 2 mM L-glutamine (Gibco), 0.1 mM β-mercaptoethanol (Gibco) and 10^3 unit/ml LIF (Chemicon)] with or without BIX01294 (0.5-1 μM). GFP-positive iPS cell colonies appeared after 9-14 days, and were picked out and expanded on MEF feeder cells with the mESC growth media.
# [3] = tested on: mouse embryonic fibroblasts (129 or OG2 MEFs); experiment: Screen for iPSC generation from MEFs transduced with Oct4/Klf4 (OK); format: cell-based
# Procedure: Unmodified MEFs derived from E13-14 embryos of the 129 mice were used for the initial screen. MEFs were plated on Matrigel at 3.5×10^4 cells/well of a 6-well plate and transduced with OK (retroviral vectors expressing Oct4 and Klf4) alone. Within 14-21 days, treated cells were assessed for the appearance of colonies that had the characteristic embryonic stem cell (ESC) colony morphology and were positive for the pluripotency marker alkaline phosphatase (ALP). Such OK-transduced cells generated only a few small non-compact colonies, which were weakly positive for ALP expression. These colonies initially appeared within 21 days after viral transduction and were difficult to expand. Therefore, such assay system offered a clean background for the identification of small molecules having desirable reprogramming inducing activity. Using this system, compounds from a library of around 2000 known small molecules (see Experimental Procedures below) were screened and were identified as hits when they induced the appearance of ESC colonies that were strongly positive for ALP within 14-21 days after treatment. This image-based method provided a more accurate assessment of reprogramming as compared to homogenous reporter-based assay. BIX appeared to have the strongest effect with reproducible induction of more than 1-2 compact ESC-like colonies with high ALP expression. We observed that when MEFs were treated with BIX after OK viral transduction, compact colonies with strong ALP expression could be readily detected within approximately 14-21 days. These cells were also positive for Nanog, Oct4 and SSEA-1 expression. […] However, the reprogramming efficiency in MEFs transduced with OK and treated with BIX was still low, about 2 colonies/3.5×10^4 cells, in comparison to the four factor-induced reprogramming of MEFs or the OK/BIX NPC reprogramming (Shi, Y. et al., Cell Stem Cell, 2:525-528 (2008)). Therefore, we conducted a second screen using a similar protocol, but where BIX was added to the basal media after OK viral transduction. This provided a more permissive platform to identify new small molecules that could further improve reprogramming efficiency. More importantly, this second screen could facilitate discovery of small molecules that impact reprogramming in a more specific manner, for example by acting on signal transduction pathways rather than on histone or DNA modifying enzymes. In this second screen, we again assayed the library of around 2000 known small molecules (see Experimental Procedures), and confirmed two compounds that were able to act in a synergistic manner with BIX to improve reprogramming based on the criteria of the screen. […] Therefore, RG108 was not pursued further for this study. Instead, we focused our phenotypic and functional characterization on another small molecule that was identified in the second screen, BayK, an L-calcium channel agonist. […] Therefore, BayK might play a more specific role in the reprogramming process. When 129 MEFs were transduced with empty retrovirus (negative control); no colonies observed. When 129 MEFs were transduced with OK without small molecules; few small flattened colonies with weak ALP expression present. […] When OK-transduced MEFs were treated with BIX in combination with BayK, a significant increase in the number of ALP^+ colonies that closely resemble the mESC morphology could be observed (˜7 colonies) as compared to OK-transduced MEFs treated with BIX alone (˜2 colonies).
# Primary 12952/SvPasCrlf (primary screen) or ROSA26^+/−/OG2^+/− (secondary screen) MEFs were plated onto Matrigel (1:50; BD Biosciences, Bedford, Mass.) coated dishes at a density of 3.5×10^4 cells per well of a 6-well plate. Twenty-four hours later, these cells were transduced overnight with defined retroviruses at 37° C., 5% CO2. […] (all products were from Invitrogen, Carlsbad, Calif., except where mentioned). […]
compound,measurement,setting,value
COc1cc2nc(N3CCCN(C)CC3)nc(NC3CCN(Cc4ccccc4)CC3)c2cc1OC [BIX01294],proliferation of mES cells (cell number),[1],does not increase the proliferation of mES cells
same,appearance of GFP+ iPS cell colonies after transduction and treatment,[2]; OG2 neural progenitor cells transduced with Oct4/Klf4 retroviruses,12 days
same,kinetics of reprogramming,"[2]; Oct4/Klf4 viral transduction, BIX01294 treatment",didn't significantly shorten the kinetics of reprogramming
same,reprogramming efficiency,"[2]; Oct4/Klf4 viral transduction, BIX01294 treatment (0.5-1 μM)",significantly improve the reprogramming efficiency to or higher than the level of using viral transduction of all four factors
same,generation of iPS cells in the absence of Oct4 expression,"[2]; viral transduction of Klf4, Sox2 and cMyc with simultaneous treatment",can also generate iPS cells
same,reprogramming efficiency (GFP+ colonies),"[3]; OG2 MEFs transduced with OK, FIG. 3",2.5±0.7 colonies per 3.5×10^4 cells
same,number of ALP+ colonies that closely resemble the mESC morphology,"[3]; OK-transduced 129 MEFs, 14-21 days",about 2 colonies
